As usually defined, the IC50 is the point on the concentration scale where inhibition reaches its midpoint.

This passage reports IC50 results from patent publication US10865191B2, “Heterocyclic compounds useful as modulators of TNF alpha” (BRISTOL-MYERS SQUIBB COMPANY, priority 2015, dated 2020).

Where only a bound is given, the exact number is not on record here.

Sequence of TNFα (P01375 77-233 limits assumed): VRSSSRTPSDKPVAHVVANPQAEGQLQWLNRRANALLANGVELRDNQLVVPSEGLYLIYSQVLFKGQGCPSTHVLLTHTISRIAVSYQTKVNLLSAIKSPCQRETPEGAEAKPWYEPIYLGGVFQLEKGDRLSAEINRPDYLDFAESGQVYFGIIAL

The first test addresses TNFα (Homo sapiens, UniProt P01375). Description: TNF induced HEK-Blue assay (NF-kB-driven secreted alkaline phosphatase reporter). To be noted: TNF induced HEK-Blue assay IC50 value, TNFα 0.5 ng/mL, HEK-Blue-CD40L cells, 18 h. The test is classed as cell-based. In short, it runs like this:
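HEK-Blue-CD40L cells (NF-kB-driven SEAP reporter), 20,000/well, added after 30 min pre-incubation of compound (0.004–25 μM final) with TNFα 0.5 ng/mL final at 37 °C; 18 h incubation. SEAP read with QUANTI-Blue at 620 nm; IC50 from 4-parameter logistic fit, normalized to unstimulated and stimulated DMSO controls.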
Take `CC(=O)N1CCC[C@@H](C(C)Nc2c(Cl)cnc3ccc(-c4cnc(C(C)(C)O)nc4)cc23)C1` (single isomer, unassigned) [Example 108]: the IC50 lay in the range of 1000 to 10000 nM.

In the case of `C[C@H](Nc1c(Cl)cnc2cnc(-c3cnc(C(C)(C)O)nc3)cc12)c1ccccc1F` (single isomer, unassigned) [Example 234], the IC50 was 10000 to 25000 nM.

For `CC(Nc1c(Cl)cnc2cc(F)c(-c3cnc(C(C)(C)O)nc3)cc12)c1ccccc1F` (single isomer, unassigned) [Example 241, 2-(5-(3-chloro-7-fluoro-4-((1-(2-fluorophenyl)ethyl)amino)quinolin-6-yl)pyrimidin-2-yl)propan-2-ol], the IC50 was < 1000 nM.

The same test, now with this note: TNFα 0.5 ng/mL, HEK-Blue-CD40L cells, 18 h; read-out: TNF induced HEK-Blue assay IC50 value.
As to `CC(C)(O)c1ncc(-c2ccc3ncc(Cl)c(NC(c4ccccc4F)C(F)F)c3c2)cn1` (single isomer, unassigned) [Example 55a], the IC50 was < 1000 nM.

In the case of `CC(Nc1c(Cl)cnc2ccc(-c3cnc(C(C)(C)O)nc3)cc12)[C@H]1CCCNC1` (single isomer, unassigned) [Example 96], the concentration for half-maximal inhibition (IC50) is 10000 to 25000 nM.

On to `CC(Nc1c(Cl)cnc2ccc(-c3cnc(C(C)(C)O)nc3)cc12)[C@H]1CCCNC1` (single isomer, unassigned) [Example 97], for which the IC50 was < 1000 nM.

On to `CC(Nc1c(Cl)cnc2ccc(-c3cnc(C(C)(C)O)nc3)cc12)[C@@H]1CCCN(C(N)=O)C1` (single isomer, unassigned) [Example 104], for which the IC50 lay in the range of 1000 to 10000 nM.

With `C[C@@H](Nc1c(Cl)cnc2cnc(-c3cnc(N4CCN(CC(=O)O)CC4)nc3)cc12)c1ccccc1F` (single isomer, unassigned) [Example 235], the IC50 was 10000 to 25000 nM.

As for `C[C@H](Nc1c(Cl)cnc2cnc(-c3cnc(N4CCN(CC(=O)O)CC4)nc3)cc12)c1ccccc1F` (single isomer, unassigned) [Example 236], the IC50 is 10000 to 25000 nM.

Take `CC(C)(O)c1ncc(-c2ccc3ncc(Cl)c(N[C@H](CCF)c4ccccc4F)c3c2)cn1` (single isomer, unassigned) [Example 238]: the IC50 is < 1000 nM.

Consider `CC(Nc1c(Cl)cnc2cc(F)c(-c3cnc(N4CCN(CC(=O)O)CC4)nc3)cc12)c1ccccc1F` (single isomer, unassigned) [Example 242, 2-(4-(5-(3-chloro-7-fluoro-4-((1-(2-fluorophenyl)ethyl)amino)quinolin-6-yl)pyrimidin-2-yl)piperazin-1-yl)acetic acid], for which the IC50 was < 1000 nM.

Regarding `CCOC(=O)C1CCN(c2ncc(-c3cc4c(NC(C)c5ccccc5F)c(Cl)cnc4cc3F)cn2)CC1` (single isomer, unassigned) [Example 243, ethyl-1-(5-(3-chloro-7-fluoro-4-((1-(2-fluorophenyl)ethyl)amino)quinolin-6-yl)pyrimidin-2-yl)piperidine-4-carboxylate], the IC50 is < 1000 nM.

Take `CC(Nc1c(Cl)cnc2cc(F)c(-c3cnc(N4CCC(C(=O)O)CC4)nc3)cc12)c1ccccc1F` (single isomer, unassigned) [Example 244, 1-(5-(3-chloro-7-fluoro-4-((1-(2-fluorophenyl)ethyl)amino)quinolin-6-yl)pyrimidin-2-yl)piperidine-4-carboxylic acid]: the IC50 was < 1000 nM.

Regarding `CC(Nc1c(Cl)cnc2cc(F)c(-c3cnc(N4CCC(C(C)(C)O)CC4)nc3)cc12)c1ccccc1F` (single isomer, unassigned) [Example 245, 2-(1-(5-(3-chloro-7-fluoro-4-((1-(2-fluorophenyl)ethyl)amino)quinolin-6-yl)pyrimidin-2-yl)piperidin-4-yl)propan-2-ol], the IC50 is < 1000 nM.

Take `Cc1nc2ccc(-c3cnc(C(C)(C)O)nc3)cc2c(C(O)C(C)CC(C)C)c1Cl` (single isomer, unassigned) [Example 355, 1-(3-Chloro-6-(2-(2-hydroxypropan-2-yl)pyrimidin-5-yl)-2-methylquinolin-4-yl)-2,4-dimethylpentan-1-ol]: the IC50 lay in the range of 1000 to 10000 nM.

On to `CCCC(C)C(N)c1c(Cl)c(C)nc2ccc(-c3cnc(C(C)(C)O)nc3)cc12` (single isomer, unassigned) [Example 357, 2-(5-(4-(1-amino-2-methylpentyl)-3-chloro-2-methylquinolin-6-yl)pyrimidin-2-yl)propan-2-ol], for which the IC50 lay within 1000 to 10000 nM.

`CCCC(C)C(N)c1c(Cl)c(C)nc2ccc(-c3cnc(C(C)(C)O)nc3)cc12` (single isomer, unassigned) [Example 358, 2-(5-(4-(1-amino-2-methylpentyl)-3-chloro-2-methylquinolin-6-yl)pyrimidin-2-yl)propan-2-ol]: the IC50 lay in the range of 10000 to 25000 nM.

As to `C[C@@H](Nc1c(Cl)cnc2ccc(-c3cnc(C(C)(C)O)nc3)cc12)c1cc(C(O)CO)ccc1F` (single isomer, unassigned) [Example 400], the IC50 is < 1000 nM.

In the case of `C[C@@H](Nc1c(Cl)cnc2ccc(-c3cnc(C(C)(C)O)nc3)cc12)c1cc(C(O)CO)ccc1F` (single isomer, unassigned) [Example 401], the IC50 is < 1000 nM.

Regarding `C[C@@H](Nc1c(Cl)cnc2ccc(-c3cnc(C(C)(C)O)nc3)cc12)c1cc(C2NC(=O)NC2=O)ccc1F` (single isomer, unassigned) [Example 422], the IC50 was < 1000 nM.

For the compound `C[C@@H](Nc1c(Cl)cnc2ccc(-c3cnc(C(C)(C)O)nc3)cc12)c1cc(C2NC(=O)NC2=O)ccc1F` (single isomer, unassigned) [Example 423], the IC50 is < 1000 nM.

For `CC(Nc1c(Cl)cnc2cc(F)c(-c3cnc(C(C)(C)O)cn3)cc12)c1ccccc1F` (single isomer, unassigned) [Example 595, 2-(5-(3-chloro-7-fluoro-4-((1-(2-fluorophenyl)ethyl)amino)quinolin-6-yl)pyrazin-2-yl)propan-2-ol], the IC50 was < 1000 nM.

`CC(Nc1c(Cl)cnc2cc(F)c(-c3cnc(C(O)CO)nc3)cc12)c1ccccc1F` (single isomer, unassigned) [Example 596, 1-(5-(3-chloro-7-fluoro-4-((1-(2-fluorophenyl)ethyl)amino)quinolin-6-yl)pyrimidin-2-yl)ethane-1,2-diol]: the IC50 is < 1000 nM.

Take `CC(Nc1c(Cl)cnc2cc(F)c(-c3cnc(C(O)CO)nc3)cc12)c1ccccc1F` (single isomer, unassigned) [Example 597, 1-(5-(3-chloro-7-fluoro-4-((1-(2-fluorophenyl)ethyl)amino)quinolin-6-yl)pyrimidin-2-yl)ethane-1,2-diol]: the IC50 is 1000 to 10000 nM.

On to `CC(Nc1c(Cl)cnc2cc(F)c(-c3ccc(C4COCCN4)cc3)cc12)c1ccccc1F` (single isomer, unassigned) [Example 598, 3-chloro-7-fluoro-N-(1-(2-fluorophenyl)ethyl)-6-(4-(morpholin-3-yl)phenyl)quinolin-4-amine], for which the IC50 is 1000 to 10000 nM.

As for `CNCC(O)c1ccc(-c2cc3c(NC(C)c4ccccc4F)c(Cl)cnc3cc2F)cc1` (single isomer, unassigned) [Example 600, 1-(4-(3-chloro-7-fluoro-4-((1-(2-fluorophenyl)ethyl)amino)quinolin-6-yl)phenyl)-2-(methylamino)ethan-1-ol], the IC50 was < 1000 nM.

Regarding `CC(Nc1c(Cl)cnc2cc(F)c(-c3ccc(C(O)CO)cc3)cc12)c1cc(C(N)=O)ccc1F` (single isomer, unassigned) [Example 601, 3-(1-((3-chloro-6-(4-(1,2-dihydroxyethyl)phenyl)-7-fluoroquinolin-4-yl)amino)ethyl)-4-fluorobenzamide], the IC50 is < 1000 nM.

`CC(Nc1c(Cl)cnc2cc(F)c(-c3cnc(N4CCN(C(=O)CCC(=O)O)CC4)nc3)cc12)c1ccccc1F` (single isomer, unassigned) [Example 602, 4-(4-(5-(3-chloro-7-fluoro-4-((1-(2-fluorophenyl)ethyl)amino)quinolin-6-yl)pyrimidin-2-yl)piperazin-1-yl)-4-oxobutanoic acid]: the IC50 was < 1000 nM.

`CC(O)C(=O)N1CCN(c2ncc(-c3cc4c(NC(C)c5ccccc5F)c(Cl)cnc4cc3F)cn2)CC1` (single isomer, unassigned) [Example 603, 1-(4-(5-(3-chloro-7-fluoro-4-((1-(2-fluorophenyl)ethyl)amino)quinolin-6-yl)pyrimidin-2-yl)piperazin-1-yl)-2-hydroxypropan-1-one]: the IC50 is < 1000 nM.

Turning to `CC(Nc1c(Cl)cnc2cc(F)c(-c3cnc(N4CCN(C(=O)[C@@H](N)CO)CC4)nc3)cc12)c1ccccc1F` (single isomer, unassigned) [Example 604], the IC50 was < 1000 nM.

Turning to `CC(Nc1c(Cl)cnc2cc(F)c(-c3cnc(N4CCN(C(=O)[C@@H](N)CC(=O)O)CC4)nc3)cc12)c1ccccc1F` (single isomer, unassigned) [Example 605, (3 S)-3-amino-4-(4-(5-(3-chloro-7-fluoro-4-((1-(2-fluorophenyl)ethyl)amino)quinolin-6-yl)pyrimidin-2-yl)piperazin-1-yl)-4-oxobutanoic acid], the half-maximal inhibitory concentration (IC50) is < 1000 nM.

`CC(Nc1c(Cl)cnc2cc(F)c(-c3cnc(N4CCN(C(=O)[C@H](N)CO)CC4)nc3)cc12)c1ccccc1F` (single isomer, unassigned) [Example 606]: the IC50 is < 1000 nM.

Consider `CC(Nc1c(Cl)cnc2cc(F)c(-c3cnc(N4CCN(C(=O)[C@H](N)CC(=O)O)CC4)nc3)cc12)c1ccccc1F` (single isomer, unassigned) [Example 607], for which the IC50 is < 1000 nM.

For the compound `CC(Nc1c(Cl)cnc2cc(F)c(-c3cnc(N4CCNCC4)nc3)cc12)c1ccccc1F` (single isomer, unassigned) [Example 608, 3-chloro-7-fluoro-N-(1-(2-fluorophenyl)ethyl)-6-(2-(piperazin-1-yl)pyrimidin-5-yl)quinolin-4-amine], the IC50 was < 1000 nM.
